Measured values from PubChem BioAssay AID1963451 (Molecular Pharmacology Branch, DTP, NCI, 2024).

System: 521955-158-R6-J3-PDC complex spheroid growth, % test/control
Experiment: Anticancer human tumor 521955-158-R6-J3-PDC patient-derived pancreatic carcinoma cell line growth inhibition [Asc]
Details: for IC50: curve of first compound; for viability, T/C: stronger effect = lower value
Protocol: Multicellular complex tumor spheroid response to apoptosis pathway targeting inhibitors Alrizomadlin, Pelcitoclax, and Dasminapant in combination with a variety of drugs and investigational agents in selected tumor cell lines
The MDM2 inhibitor alrizomadlin, the Bcl-2/Bcl-xL inhibitor pelcitoclax, and the IAPs inhibitor dasminapant were evaluated both individually and in combination with standard of care and investigational anticancer small molecules within a complex spheroid model of solid tumors. . Complex spheroids include a stromal component modeled by human endothelial cells (HUVEC) and fibroblasts modeled by human mesenchymal stem cells (MSCs). The concentration ranges selected for each drug and investigational agent were based upon clinically achievable concentrations if the clinical Cmax of the agent was known.
Compounds. The drugs and investigational agents: alrizomadlin (APG-115; NSC831270), pelcitoclax (APG-1252; NSC835773), dasminapant (APG-1387;NSC834197), TAK-243 (NSC785004), copanlisib (NSC809693), olaparib (NSC753686), talazoparib (NSC767125), cobimetinib (NSC 768068), eltanexor (KPT-8602, NSC 794443), abemaciclib (NSC 768073), sotorasib (NSC818433), adagrasib (NSC 831453), MRTX-1133 (NSC 836407), Iadademestat (ORY1001, NSC 806812), and RMC-4630 (NSC839698), were obtained from the NCI Developmental Therapeutics Program Chemical Repository. The FDA-approved anticancer drug set is available from the Developmental Therapeutics Program at https://dtp.cancer.gov/organization/dscb/obtaining/available plates.htm. […] The stock solutions were prepared in dimethyl sulfoxide (DMSO, Sigma-Aldrich, St. Louis, MO, cat. D2650) at 800-fold the tested concentration and stored at -70 degrees C prior to their use. All drugs and investigational agents were tested over a range starting from a high concentration at or near the clinical Cmax and decreasing in half-log increments. If the clinical Cmax for an agent had not been determined, the highest concentration tested was 10 microM.
The patient-derived cancer (PDC) cell lines include five colon adenocarcinomas: 186277-243-T-J2-PDC, 616215-338-R-J1-PDC, 439559-082-T-J2-PDC, 463943-066-T-J2-PDC, and 519858-162-T-J1-PDC; three pancreatic carcinomas: 323965-272-R-J2-PDC, 521955-158-R6-J3-PDC, and 521955-158-R2-J5-PDC; two uterine sarcomas: 327498-152-R-J2-PDC and 993429-296-R-J1-PDC; two rhabdomyosarcomas: 755483-174-R-J1-PDC and 772245-204-R-J1-PDC; two soft tissue sarcomas: 126254-015-R-J1-PDC and 494315-158-R-J1-PDC; two malignant fibrous histiocytomas: 317291-083-R-J1-PDC and 596521-263-R-J1-PDC; two breast carcinomas: 171881-019-R-J1-PDC and 885512-296-R-J2-PDC; and one ovarian carcinoma: 6556581-035-R-J-PDC were obtained from the NCI PDMR, (https://pdmr.cancer.gov). The established cell lines HSSY-2 synovial sarcoma (RRID:CVCL 8719), SYO-1 synovial sarcoma (RRID:CVCL_7146), MPNST malignant peripheral neural sheath tumor were obtained from the Sloan Kettering Institute. The following established cell lines were purchased from the American Type Culture Collection (ATCC, Manassas, VA), Sor the received from the NCI repository:, PANC-1 pancreatic carcinoma (CRL-1469, RRID:CVCL_0480), OVCAR-5 ovarian carcinoma (RRID:CVCL_1628), OVCAR-8 ovarian carcinoma (RRID:CVCL_1629), , MCF-7 breast carcinoma (CRL-12584, RRID:CVCL_0031), MDA-MB-231 breast carcinoma (CRL-12532, RRID:CVCL_0062), NCI-H1876 small cell lung carcinoma (CRL-5902, RRID:CVCL_1503), NCI-H510A small cell lung carcinoma (HTB-184, RRID:CVCL_1565), NCI-H1417 (CRL-5869, RRID:CVCL_1469), and NCI-H196 small cell lung carcinoma (CRL-5823, RRID:CVCL_1509). Dr. Peter Houghton (Greehey Children's Cancer Research Institute, University of Texas Health Science Center, San Antonio, TX) provided Rh-18 rhabdomyosarcoma (RRID:CVCL_1659). Pooled donor human umbilical vein endothelial cells (HUVEC, Lonza, cat. CC-2519) and human mesenchymal stem cells (hMSC, Lonza, cat. PT-2501) were purchased from Lonza (Walkersville, MD).
Cell Culture. […]
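Note: spheroids exposed to compounds for 7 days.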
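Throughout, for viability, T/C: 100% = DMSO vehicle control wells.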

C=CC(=O)N1CCN(c2nc(=O)n(-c3c(C)ccnc3C(C)C)c3nc(-c4c(O)cccc4F)c(F)cc23)C(C)C1 (configuration not stated) + CCN1C(C(=O)NC23CCC(C(=O)O)(CC2)CC3)C(c2cccc(Cl)c2F)C2(C(=O)Nc3cc(Cl)ccc32)C12CCCCC2
IC50 (second compound 0.00949 µM): > 10 µM | IC50 (second compound 0.03 µM): > 10 µM | IC50 (second compound 0.0949 µM): > 10 µM | IC50 (second compound 0.3 µM): > 10 µM | IC50 (second compound 0.949 µM): > 10 µM | IC50 (second compound 3 µM): > 10 µM | viability, T/C (second compound 0.00949 µM, first compound 0.0316 µM): 121% | viability, T/C (second compound 0.00949 µM, first compound 0.1 µM): 111% | viability, T/C (second compound 0.00949 µM, first compound 0.316 µM): 107% | viability, T/C (second compound 0.00949 µM, first compound 1 µM): 106% | viability, T/C (second compound 0.00949 µM, first compound 3.16 µM): 114% | viability, T/C (second compound 0.00949 µM, first compound 10 µM): 109% | viability, T/C (second compound 0.03 µM, first compound 0.0316 µM): 94.3% | viability, T/C (second compound 0.03 µM, first compound 0.1 µM): 113% | viability, T/C (second compound 0.03 µM, first compound 0.316 µM): 103% | viability, T/C (second compound 0.03 µM, first compound 1 µM): 114% | viability, T/C (second compound 0.03 µM, first compound 3.16 µM): 101% | viability, T/C (second compound 0.03 µM, first compound 10 µM): 95.7% | viability, T/C (second compound 0.0949 µM, first compound 0.0316 µM): 119% | viability, T/C (second compound 0.0949 µM, first compound 0.1 µM): 91.2% | viability, T/C (second compound 0.0949 µM, first compound 0.316 µM): 118% | viability, T/C (second compound 0.0949 µM, first compound 1 µM): 103% | viability, T/C (second compound 0.0949 µM, first compound 3.16 µM): 108% | viability, T/C (second compound 0.0949 µM, first compound 10 µM): 101% | viability, T/C (second compound 0.3 µM, first compound 0.0316 µM): 101% | viability, T/C (second compound 0.3 µM, first compound 0.1 µM): 115% | viability, T/C (second compound 0.3 µM, first compound 0.316 µM): 107% | viability, T/C (second compound 0.3 µM, first compound 1 µM): 112% | viability, T/C (second compound 0.3 µM, first compound 3.16 µM): 109% | viability, T/C (second compound 0.3 µM, first compound 10 µM): 103% | viability, T/C (second compound 0.949 µM, first compound 0.0316 µM): 108% | viability, T/C (second compound 0.949 µM, first compound 0.1 µM): 105% | viability, T/C (second compound 0.949 µM, first compound 0.316 µM): 102% | viability, T/C (second compound 0.949 µM, first compound 1 µM): 107% | viability, T/C (second compound 0.949 µM, first compound 3.16 µM): 121% | viability, T/C (second compound 0.949 µM, first compound 10 µM): 92.2% | viability, T/C (second compound 3 µM, first compound 0.0316 µM): 91.8% | viability, T/C (second compound 3 µM, first compound 0.1 µM): 95.8% | viability, T/C (second compound 3 µM, first compound 0.316 µM): 97.7% | viability, T/C (second compound 3 µM, first compound 1 µM): 92.5% | viability, T/C (second compound 3 µM, first compound 3.16 µM): 102% | viability, T/C (second compound 3 µM, first compound 10 µM): 94.3%
